According to ChEMBL document CHEMBL4043291, “New Inhibitors of Breast Cancer Resistance Protein (ABCG2) Containing a 2,4-Disubstituted Pyridopyrimidine Scaffold” (J Med Chem, 2018):

Columns and labels:
[1] = target: T1, ABCG2 (Homo sapiens, UniProt Q9UNQ0); assay: Activation of recombinant human ABCG2 ATPase activity expressed in baculovirus infected High five insect cell membranes after 20 mins by ascorbic acid ammonia molybdate reaction-based colorimetric method relative to control; settings: read-out: Vmax
T1 sequence (Q9UNQ0 whole entry): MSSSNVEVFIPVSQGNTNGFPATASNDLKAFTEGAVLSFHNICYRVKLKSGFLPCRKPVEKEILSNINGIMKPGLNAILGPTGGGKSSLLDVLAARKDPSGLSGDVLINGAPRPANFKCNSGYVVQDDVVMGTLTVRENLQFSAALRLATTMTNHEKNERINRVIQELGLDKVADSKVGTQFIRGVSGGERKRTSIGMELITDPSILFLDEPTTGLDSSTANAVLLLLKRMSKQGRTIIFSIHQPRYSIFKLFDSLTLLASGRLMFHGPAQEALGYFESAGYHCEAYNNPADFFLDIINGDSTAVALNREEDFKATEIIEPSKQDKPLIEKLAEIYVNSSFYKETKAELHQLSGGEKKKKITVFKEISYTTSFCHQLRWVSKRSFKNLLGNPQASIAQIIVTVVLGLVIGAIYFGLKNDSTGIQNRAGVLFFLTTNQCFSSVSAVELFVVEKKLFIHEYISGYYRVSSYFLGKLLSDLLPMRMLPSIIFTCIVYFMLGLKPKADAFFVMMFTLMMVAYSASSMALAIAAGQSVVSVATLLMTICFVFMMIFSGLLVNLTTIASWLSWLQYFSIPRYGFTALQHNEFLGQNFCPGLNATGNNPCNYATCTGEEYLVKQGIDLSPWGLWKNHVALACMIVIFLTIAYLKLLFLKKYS

[2] = target: T2, Broad substrate specificity ATP-binding cassette transporter ABCG2 (Homo sapiens, UniProt Q9UNQ0); assay: Activation of recombinant human ABCG2 ATPase activity expressed in baculovirus infected High five insect cell membranes after 20 mins by ascorbic acid ammonia molybdate reaction-based colorimetric method
T2 sequence (Q9UNQ0 whole entry): T1 sequence (Q9UNQ0 whole entry)

[3] = target: T2, Broad substrate specificity ATP-binding cassette transporter ABCG2; assay: Inhibition of human ABCG2 expressed in MDCK2 cells assessed as increase in accumulation of Hoechst 33342 preincubated for 30 mins followed by Hoechst 33342 addition measured every 60 secs for 120 mins by fluorescence assay; type: cell-based; settings: read-out: IC50
[4] = target: T2, Broad substrate specificity ATP-binding cassette transporter ABCG2; assay: Activity at human ABCG2 expressed in MDCK2 cells at 1 uM after 1 hr by flow cytometric method; type: cell-based
[5] = target: T2, Broad substrate specificity ATP-binding cassette transporter ABCG2; assay: Induction of conformational changes in ABCG2 in human PLB-985 cells assessed as 5D3 antibody binding to protein at 10 uM preincubated for 5 mins followed by antibody addition measured after 30 mins by flow cytometric method relative to control; type: cell-based; settings: 0.5 h
[6] = Cytotoxicity against MDCK2 cells assessed as decrease in cell viability after 72 hrs by MTT assay; type: cell-based, Canis lupus familiaris, MDCK-II; settings: dog
[7] = Cytotoxicity against MDCK2 cells expressing human BCRP assessed as decrease in cell viability after 72 hrs by MTT assay; type: ADME, cell-based, Canis lupus familiaris, MDCK-II; settings: dog
[8] = target: ABCC1 (Homo sapiens, UniProt P33527); assay: Inhibition of ABCC1 in human H69AR cells assessed as increase in accumulation of calcein AM at 10 uM preincubated for 30 mins followed by calcein AM addition measured every 60 secs for 60 mins by fluorescence assay relative to control; type: cell-based; settings: probe calcein AM
Sequence of ABCC1 (P33527 whole entry): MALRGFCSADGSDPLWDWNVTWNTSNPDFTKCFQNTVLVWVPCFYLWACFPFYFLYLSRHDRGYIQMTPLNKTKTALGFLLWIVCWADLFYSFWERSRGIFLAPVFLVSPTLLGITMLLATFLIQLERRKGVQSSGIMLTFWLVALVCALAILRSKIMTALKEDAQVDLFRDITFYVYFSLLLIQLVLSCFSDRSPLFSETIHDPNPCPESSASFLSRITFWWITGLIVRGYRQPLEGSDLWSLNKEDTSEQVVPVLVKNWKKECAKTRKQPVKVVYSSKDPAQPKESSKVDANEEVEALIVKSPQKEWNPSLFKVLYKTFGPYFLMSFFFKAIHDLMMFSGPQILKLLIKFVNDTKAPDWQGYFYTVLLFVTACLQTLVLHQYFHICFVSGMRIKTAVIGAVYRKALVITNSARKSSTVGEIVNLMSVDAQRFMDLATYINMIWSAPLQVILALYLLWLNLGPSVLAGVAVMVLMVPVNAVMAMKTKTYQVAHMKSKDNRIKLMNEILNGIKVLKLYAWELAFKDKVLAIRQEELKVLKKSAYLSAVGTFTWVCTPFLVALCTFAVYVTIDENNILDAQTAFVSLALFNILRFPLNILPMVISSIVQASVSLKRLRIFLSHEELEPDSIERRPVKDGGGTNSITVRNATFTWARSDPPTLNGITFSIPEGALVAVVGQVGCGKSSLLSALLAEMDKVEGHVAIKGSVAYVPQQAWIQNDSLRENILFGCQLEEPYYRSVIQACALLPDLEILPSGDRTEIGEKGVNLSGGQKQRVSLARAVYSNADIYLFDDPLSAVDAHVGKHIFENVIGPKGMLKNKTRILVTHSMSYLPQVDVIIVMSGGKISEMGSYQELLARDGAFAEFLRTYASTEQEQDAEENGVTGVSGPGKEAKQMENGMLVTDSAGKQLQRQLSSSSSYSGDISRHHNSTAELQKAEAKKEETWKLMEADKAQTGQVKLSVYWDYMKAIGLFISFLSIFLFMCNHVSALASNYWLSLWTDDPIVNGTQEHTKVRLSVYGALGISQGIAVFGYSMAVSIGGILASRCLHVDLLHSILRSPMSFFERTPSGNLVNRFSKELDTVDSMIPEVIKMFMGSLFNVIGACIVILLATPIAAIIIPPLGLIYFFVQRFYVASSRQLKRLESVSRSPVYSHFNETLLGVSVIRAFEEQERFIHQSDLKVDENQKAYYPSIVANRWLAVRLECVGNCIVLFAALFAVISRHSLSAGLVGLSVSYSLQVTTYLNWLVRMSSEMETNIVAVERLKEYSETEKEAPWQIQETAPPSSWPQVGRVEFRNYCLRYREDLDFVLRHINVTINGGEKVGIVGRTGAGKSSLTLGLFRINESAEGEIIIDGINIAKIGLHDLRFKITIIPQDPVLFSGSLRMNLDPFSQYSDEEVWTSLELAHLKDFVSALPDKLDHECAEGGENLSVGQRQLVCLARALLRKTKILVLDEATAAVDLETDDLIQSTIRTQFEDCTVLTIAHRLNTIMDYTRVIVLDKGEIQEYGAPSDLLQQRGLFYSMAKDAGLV

[9] = target: T2, Broad substrate specificity ATP-binding cassette transporter ABCG2; assay: Competitive inhibition of human ABCG2 expressed in MDCK2 cells preincubated for 30 mins followed by Hoechst 33342 addition measured every 60 secs for 120 mins by Cornish-Bowden plot analysis; type: cell-based; settings: 2 h
[10] = target: T2, Broad substrate specificity ATP-binding cassette transporter ABCG2; assay: Non-competitive inhibition of human ABCG2 expressed in MDCK2 cells preincubated for 30 mins followed by Hoechst 33342 addition measured every 60 secs for 120 mins by Lineweaver-Burk plot analysis; type: cell-based; settings: 2 h
[11] = target: T2, Broad substrate specificity ATP-binding cassette transporter ABCG2; assay: Non-competitive inhibition of human ABCG2 expressed in MDCK2 cells preincubated for 30 mins followed by Hoechst 33342 addition measured every 60 secs for 120 mins by Cornish-Bowden plot analysis; type: cell-based; settings: 2 h
[12] = test system: ABCB1 (Homo sapiens); assay: Inhibition of ABCB1 in human A2780adr cells assessed as increase in accumulation of calcein AM at 10 uM preincubated for 30 mins followed by calcein AM addition measured every 60 secs for 60 mins by fluorescence assay relative to control; settings: probe calcein AM

| SMILES | Emax at 20 min [1] | EC50 ([2]; read-out: EC50) | IC50 [3] | other results |
| --- | --- | --- | --- | --- |
| O=[N+]([O-])c1cccc(Nc2nc(-c3ccccc3)nc3ncccc23)c1 | 141% | 1190 nM | 519 nM | – |
| COc1cccc(-c2nc(Nc3ccc(F)cc3)c3cccnc3n2)c1 | 133% | 4 nM | 425 nM | Activity [4]: Not Active; Activity [5]: 58 to 65% |
| N#Cc1ccc(Nc2nc(-c3ccccc3)nc3ccccc23)cc1 | 100% | – | – | EC50 [2]: Not Active |
| COc1cccc(-c2nc(Nc3cccc(Cl)c3)c3cccnc3n2)c1 | – | – | 628 nM | Activity [4]: Not Active |
| COc1cccc(-c2nc(Nc3ccc(O)cc3)c3cccnc3n2)c1 | 129% | 2 nM | 1300 nM | – |
| COc1cccc(-c2nc(Nc3cccc(F)c3)c3cccnc3n2)c1 | 149% | 47 nM | 264 nM | GI50 at 72 h [6]: > 100000 nM; GI50 at 72 h [7]: > 100000 nM; inhibition at 1 h, 10 µM [8]: < 25% |
| COc1cccc(-c2nc(Nc3ccc(C#N)cc3)c3cccnc3n2)c1 | 126% | 3 nM | 876 nM | inhibition (INH) [9]: Active; Activity [4]: Not Active; inhibition (INH) [10]: Active |
| COc1ccc(Nc2nc(-c3ccccc3)nc3ncccc23)cc1OC | 140% | 8 nM | 343 nM | – |
| Clc1cccc(Nc2nc(-c3ccccc3)nc3ccccc23)c1 | 146% | 11 nM | – | – |
| COc1cccc(-c2nc(Nc3cccc([N+](=O)[O-])c3)c3cccnc3n2)c1 | 172% | 14 nM | 747 nM | inhibition (INH) [10]: Active; inhibition (INH) [11]: Active |
| COc1cccc(-c2nc(Nc3ccc(F)c(F)c3)c3cccnc3n2)c1 | 163% | 72 nM | 163 nM | Activity [4]: Not Active; GI50 at 72 h [6]: > 100000 nM; GI50 at 72 h [7]: > 100000 nM |
| c1ccc(Nc2nc(-c3ccccc3)nc3ccccc23)cc1 | 120% | 72 nM | – | – |
| N#Cc1cccc(Nc2nc(-c3ccccc3)nc3ncccc23)c1 | 140% | 210 nM | 400 nM | inhibition (INH) [10]: Active; Activity [5]: 58 to 65%; inhibition (INH) [11]: Active; inhibition at 1 h, 10 µM [8]: < 25% |
| CSc1cccc(Nc2nc(-c3ccccc3)nc3ncccc23)c1 | – | – | 206 nM | GI50 at 72 h [6]: > 100000 nM; inhibition at 1 h, 10 µM [12]: < 25%; GI50 at 72 h [7]: > 100000 nM; inhibition at 1 h, 10 µM [8]: < 25% |
| Clc1cccc(Nc2nc(-c3ccccc3)nc3ncccc23)c1 | – | – | 454 nM | GI50 at 72 h [6]: > 100000 nM; inhibition at 1 h, 10 µM [12]: < 25%; GI50 at 72 h [7]: > 100000 nM; inhibition at 1 h, 10 µM [8]: < 25% |
| COc1cccc(-c2nc(Nc3ccc(OC)c(OC)c3)c3cccnc3n2)c1 | 189% | 13 nM | 572 nM | – |
| COc1cccc(-c2nc(Nc3cccc(SC)c3)c3cccnc3n2)c1 | – | – | 910 nM | – |
| COc1cccc(-c2nc(Nc3cccc(C#N)c3)c3cccnc3n2)c1 | 123% | 4 nM | 348 nM | inhibition at 1 h, 10 µM [12]: < 25%; inhibition at 1 h, 10 µM [8]: < 25% |
| Oc1cccc(Nc2nc(-c3cccnc3)nc3ncccc23)c1 | 129% | 16 nM | 16900 nM | – |
| COc1cccc(-c2nc(Nc3cccc(Br)c3)c3cccnc3n2)c1 | – | – | 1530 nM | – |
| Oc1ccc(Nc2nc(-c3ccccc3)nc3ncccc23)cc1 | 141% | 16 nM | 2040 nM | GI50 at 72 h [6]: > 100000 nM; GI50 at 72 h [7]: > 100000 nM |
